Data reported in patent US8022072B2, “Azolylmethylidenehydrazine derivative and use thereof” (Kaken Pharmaceutical Co., Ltd., priority 2007, dated 2011).
Converted amounts (≈) assume the structure as drawn.

What was measured:
[1] = tested on: Trichophyton mentagrophytes KD-04; assay: Antifungal activity evaluation test, MIC, Trichophyton mentagrophytes KD-04; assay type: cell-based; details: KD04, 168 h, Sabouraud Dextrose Broth, 30° C., 7 days, visual, read-out: MIC T. men. KD-04
Experimental: (§1) The minimum inhibitory concentration (MIC) for Trichophyton mentagrophytes, Trichophyton rubrum, and Malassezia furfur was measured according to the following procedure. • Test compound solution: A test compound was dissolved in dimethyl sulfoxide (DMSO) at a concentration of 5 mg/mL as a stock solution. […] Then, as a test medium, a fungal solution of Trichophyton species was 100-fold diluted with Sabouraud Dextrose Broth (Difco), and a fungal solution of Malassezia furfur IFO-0656 was 100-fold diluted with MU medium to give each inoculum (2×10^4 cells/mL). • Measurement of MIC of Trichophyton fungi: Sabouraud Dextrose Broth (Difco) was dispensed by 100 μL to a given well of a 96 well flat microplate. Then, a test compound solution (2 μL) was added, and the mixture was thoroughly mixed with a plate mixer. A fungal solution (100 μL) was inoculated and cultured at 30° C. for 7 days. The presence or absence of the cell growth was visually observed, and the minimum medicament concentration at which the cell growth was prevented was taken as MIC (μg/mL). • Measurement of MIC of Malassezia furfur: Since the urease activity of this fungus and the fungus growth rate are co-related, MIC was evaluated by the following method using urease activity as an index. MU medium was dispensed by 100 μL to a given well of a 96 well flat microplate. Then, a test compound solution (2 μL) was added, and the mixture was thoroughly mixed with a plate mixer. A fungal solution (100 μL) was inoculated and cultured at 30° C. The culture was stopped on day 4 or 5 of culture when the color tone of the MU medium changes from yellow to red in visual observation of the fungus growth in a well free of addition of a test substance. Then the plate was stirred until the fungus became uniform, and the urease activity was measured based on the measurement of absorbance at 550 nm using a plate reader.

[2] = tested on: Trichophyton mentagrophytes SM-110; assay: Antifungal activity evaluation test, MIC, Trichophyton mentagrophytes SM-110; assay type: cell-based; details: SM110, 168 h, Sabouraud Dextrose Broth, 30° C., 7 days, visual, read-out: MIC T. men. SM-110
Experimental: as §1

[3] = tested on: Trichophyton rubrum KD-101; assay: Antifungal activity evaluation test, MIC, Trichophyton rubrum KD-101; assay type: cell-based; details: KD101, 168 h, Sabouraud Dextrose Broth, 30° C., 7 days, visual, read-out: MIC T. rub. KD-101
Experimental: as §1

[4] = tested on: Trichophyton rubrum KD-107; assay: Antifungal activity evaluation test, MIC, Trichophyton rubrum KD-107; assay type: cell-based; details: KD107, 168 h, Sabouraud Dextrose Broth, 30° C., 7 days, visual, read-out: MIC T. rub. KD-107
Experimental: as §1

[5] = tested on: Malassezia furfur IFO-0656; assay: Antifungal activity evaluation test, MIC by urease activity, Malassezia furfur IFO-0656; assay type: cell-based; details: IFO0656, 96 h, MU medium, 30° C., day 4 or 5, urease activity of 20% or below, read-out: MIC M. fur. IFO-0656
Experimental: as §1

[6] = tested on: TNCB-induced dermatitis; assay: 2,4,6-Trinitrochlorobenzene (TNCB)-induced dermatitis model, ear edema; assay type: in vivo, male BALB/c mouse; details: test compound 1 w/v % (FK506 0.1 w/v %), 20 μL applied to auricle, 24 hours after induction
Experimental: (§2) The test compound was adjusted to 1 w/v % when in use with a solvent (acetone:olive oil=1:1, v/v)) and put to use. FK506 (control substance) was adjusted to 0.1 w/v % and used.
The fur on the abdomen of male BALB/c mouse was shaved with a hair clipper, and 100 μL of 7 w/v % TNCB sensitizing liquid (solvent was acetone:olive oil=4:1, v/v) was applied. Six days after the sensitization, the thickness of the right auricle was measured with a micrometer (pre-value). After the measurement, 10 μL of 1 w/v % TNCB challenge liquid (solvent was acetone:olive oil=1:9, v/v) was applied to the inside of the right auricle to induce ear edema. About 5 minutes after the application of the challenge liquid, 20 μL of the test compound was applied to the outside of the auricle.
After 24 hours from the induction of ear edema, the thickness of the right auricle was measured by a method similar to the pre-value (post-value). The difference between the post-value and the pre-value of ear edema by each test compound was determined, based on which the inhibition rate was calculated. The activity of each test compound was calculated with the ear edema inhibition rate of FK506 as 1.0 (ear edema inhibition rate of each test compound/ear edema inhibition rate of FK506).

[7] = tested on: OVA-induced dermatitis; assay: Ovalbumin (OVA)-induced dermatitis model, ear edema; assay type: in vivo, male ICR mouse; set-up: key: ratio of compound's ear edema inhibition rate to FK506's (FK506 = 1.0); details: test compound 1 w/v % (FK506 0.1 w/v %), 20 μL applied to auricle, 24 hours after induction
Experimental: as §2
Male ICR mouse was sensitized by the administration of 0.2 mL of OVA-hydroxide aluminum gel suspension to the abdominal cavity. After 14 days from the sensitization, the thickness of the right auricle was measured with a micrometer (pre-value). After the measurement, 20 μL of 0.5 μg/mL OVA challenge liquid (solvent was physiological saline) was subcutaneously administered to the inside of the auricle to induce ear edema. About 5 minutes after the administration of the challenge liquid, 20 μL of the test compound was applied to the outside of the auricle. After 24 hours from the induction of ear edema, the thickness of the right auricle was measured by a method similar to the pre-value (post-value). The difference between the post-value and the pre-value of ear edema by each test compound was determined, based on which the inhibition rate was calculated. The activity of each test compound was calculated with the ear edema inhibition rate of FK506 as 1.0 (ear edema inhibition rate of each test compound/ear edema inhibition rate of FK506).

[8] = tested on: Trichophyton mentagrophytes KD-04; assay: Influence of keratin addition on anti-Trichophyton activity; assay type: cell-based; details: Trichophyton mentagrophytes, KD04, 168 h, 30° C., 7 days
Experimental: The MIC increase rate by the addition of keratin to a medium was measured by the following procedure. • Test compound solution: A test compound was dissolved in dimethyl sulfoxide (DMSO) at a concentration of 5 mg/mL as a stock solution. Diluting this solution with DMSO, a 2-fold dilution series was prepared. • Test strain: Trichophyton mentagrophytes KD-04 was used. Preparation of Fungal Inoculum: the Above-Mentioned Strain was suspended in 0.05% Tween 80-containing physiological saline, and adjusted to a fungus concentration of 2×10^6 cells/mL using a counting chamber. […] The physiological saline was removed, and the mixture was further washed once with physiological saline (3 mL). The physiological saline was removed, and a test compound solution (10 μL) and Sabouraud Dextrose Broth (Difco) (500 μL) were added to keratin, and the mixture was sufficiently stirred. Then, inoculum (500 μL) of T. mentagrophytes KD-04 was added, and the mixture was cultured at 30° C. for 7 days. As a comparison control, an experiment similar to the above was performed under conditions free of keratin addition.

[9] = T. mentagrophytes KD-04, free of keratin addition, read-out: MIC SDB alone
[10] = T. mentagrophytes KD-04, keratin 50 mg added, read-out: MIC SDB + keratin

Row | Structure (SMILES) | MIC [1] [µg/mL] | MIC [2] [µg/mL] | MIC [3] [µg/mL] | MIC [4] [µg/mL] | MIC [5] [µg/mL] | TNCB-induced dermatitis, with ear edema inhibition rate of FK506 as 1.0 [6] | OVA-induced dermatitis, with ear edema inhibition rate of FK506 as 1.0 [7] | MIC [8, 9] [µg/mL] | MIC [8, 10] [µg/mL]
1 | CCCCCOc1ccccc1C(=NN1CCCC1)n1ccnc1 [Compound No. 157, [1-imidazol-1-yl-1-(2-pentyloxyphenyl)methylidene]pyrrolidin-1-ylamine] | 0.05 (≈ 0.153 µM) | 0.1 (≈ 0.306 µM) | 0.05 (≈ 0.153 µM) | 0.05 (≈ 0.153 µM) | 0.2 (≈ 0.613 µM) | 0.8 | 1.3 | – | –
2 | CN(C)N=C(c1ccccc1OCCCCOc1ccccc1)n1ccnc1 [Compound No. 71, N′-[1-imidazol-1-yl-1-[2-(4-phenoxybutoxy)phenyl]methylidene]-N,N-dimethylhydrazine] | 0.05 (≈ 0.132 µM) | 0.1 (≈ 0.264 µM) | 0.05 (≈ 0.132 µM) | 0.025 (≈ 0.0661 µM) | 0.05 (≈ 0.132 µM) | 0.9 | 0.9 | – | –
3 | CN(C)N=C(c1ccccc1CCCOc1ccccc1)n1ccnc1 [Compound No. 9, N′-[1-imidazol-1-yl-1-[2-(3-phenoxypropyl)phenyl]methylidene]-N,N-dimethylhydrazine] | 0.05 (≈ 0.143 µM) | 0.2 (≈ 0.574 µM) | 0.05 (≈ 0.143 µM) | 0.05 (≈ 0.143 µM) | 0.2 (≈ 0.574 µM) | 0.7 | 1.2 | – | –
4 | CN(C)N=C(c1ccccc1OCCOc1ccccc1)n1ccnc1 [Compound No. 66, N′-[1-imidazol-1-yl-1-[2-(2-phenoxyethoxy)phenyl]methylidene]-N,N-dimethylhydrazine] | 0.1 (≈ 0.285 µM) | 0.2 (≈ 0.571 µM) | 0.1 (≈ 0.285 µM) | 0.05 (≈ 0.143 µM) | 0.39 (≈ 1.11 µM) | 0.8 | 1.1 | 0.05 (≈ 0.143 µM) | 0.1
5 | CCN(C)N=C(c1ccccc1OCCOc1ccccc1)n1ccnc1 [Compound No. 114, N-ethyl-N′-[1-imidazol-1-yl-1-[2-(2-phenoxyethoxy)phenyl]methylidene]-N-methylhydrazine] | 0.2 (≈ 0.549 µM) | 0.39 (≈ 1.07 µM) | 0.1 (≈ 0.274 µM) | 0.05 (≈ 0.137 µM) | 0.2 (≈ 0.549 µM) | 0.7 | 0.9 | – | –
6 | COc1ccc(COc2ccccc2C(=NN(C)C)n2ccnc2)cc1 [Compound No. 52, N′-[1-imidazol-1-yl-1-[2-(4-methoxybenzyloxy)phenyl]methylidene]-N,N-dimethylhydrazine] | 0.2 (≈ 0.571 µM) | 0.39 (≈ 1.11 µM) | 0.05 (≈ 0.143 µM) | 0.05 (≈ 0.143 µM) | 0.39 (≈ 1.11 µM) | 0.7 | 1.1 | 0.1 (≈ 0.285 µM) | 0.2
7 | CN(C)N=C(c1sccc1OCCOc1ccccc1)n1ccnc1 [Compound No. 101, N′-[1-imidazol-1-yl-1-[3-(2-phenoxyethoxy)thiophen-2-yl]methylidene]-N,N-dimethylhydrazine] | 0.05 (≈ 0.14 µM) | 0.2 (≈ 0.561 µM) | 0.05 (≈ 0.14 µM) | 0.05 (≈ 0.14 µM) | 0.2 (≈ 0.561 µM) | 0.8 | 1.4 | – | –
8 | CCCCSc1ccccc1C(=NN(C)C)n1ccnc1 [Compound No. 82, N′-[1-(2-butylthiophenyl)-1-imidazol-1-ylmethylidene]-N,N-dimethylhydrazine] | 0.05 (≈ 0.165 µM) | 0.2 (≈ 0.661 µM) | 0.1 (≈ 0.331 µM) | 0.05 (≈ 0.165 µM) | 0.78 (≈ 2.58 µM) | 0.6 | 1.1 | 0.1 (≈ 0.331 µM) | 0.2
9 | c1ccc(OCCOc2ccccc2C(=NN2CCCC2)n2ccnc2)cc1 [Compound No. 161, [1-imidazol-1-yl-1-[2-(2-phenoxyethoxy)phenyl]methylidene]pyrrolidin-1-ylamine] | 0.2 (≈ 0.531 µM) | 0.39 (≈ 1.04 µM) | 0.1 (≈ 0.266 µM) | 0.1 (≈ 0.266 µM) | 0.39 (≈ 1.04 µM) | 0.7 | 0.9 | – | –
10 | CN(C)N=C(c1ccccc1CCc1ccccc1)n1ccnc1 [Compound No. 6, N′-[1-imidazol-1-yl-1-(2-phenethylphenyl)methylidene]-N,N-dimethylhydrazine] | 0.05 (≈ 0.157 µM) | 0.1 (≈ 0.314 µM) | 0.1 (≈ 0.314 µM) | 0.05 (≈ 0.157 µM) | 0.78 (≈ 2.45 µM) | 0.7 | 1.4 | – | –
